The values that follow come from ChEMBL document CHEMBL1201862, “PubChem BioAssay data set” (2004).

For experiment [1], the target named is Voltage-gated N-type calcium channel alpha-1B subunit/Amyloid beta A4 precursor protein-binding family A member 1 (Homo sapiens, UniProt Q00975+Q02410). The format is protein assay.
Experiment [2] is described as follows: A549 cell cytotoxicity, dose response, cytotoxicity control, plate reader, cherry-pick, antagonist series (AID 743412). The format is functional, cell-based.
Experiment [3] is described as follows: blockade of melanocortin 4 receptor signaling – cell-based, plate reader, cherry pick, counter-screen for LGR2 antagonist project, dose response (AID 743444).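 Note: transfected HEK 293 cells stimulated with alpha-MSH peptide; potency of inhibitors of the alpha-MSH evoked signal.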 The format is functional.
Another experiment has as its system H9c2. Briefly: cells. Type of experiment: functional, cell-based. Particulars: Rattus norvegicus, H9c2, Myocardium.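 Note: confirmatory concentration-response retest of ultra-high-throughput screening hits for modulation of myocardial damage; cell death induced by hydrogen peroxide oxidative stress; compound pretreatment for 60 min then peroxide exposure for 2 h; potency is for protecting the cells against peroxide damage rather than for killing them.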
For experiment [4], the target named is T1, Corticotropin-releasing factor receptor 2/Corticotropin-releasing factor-binding protein (Homo sapiens, UniProt P24387+Q13324).
T1 sequence (Q13324 whole entry): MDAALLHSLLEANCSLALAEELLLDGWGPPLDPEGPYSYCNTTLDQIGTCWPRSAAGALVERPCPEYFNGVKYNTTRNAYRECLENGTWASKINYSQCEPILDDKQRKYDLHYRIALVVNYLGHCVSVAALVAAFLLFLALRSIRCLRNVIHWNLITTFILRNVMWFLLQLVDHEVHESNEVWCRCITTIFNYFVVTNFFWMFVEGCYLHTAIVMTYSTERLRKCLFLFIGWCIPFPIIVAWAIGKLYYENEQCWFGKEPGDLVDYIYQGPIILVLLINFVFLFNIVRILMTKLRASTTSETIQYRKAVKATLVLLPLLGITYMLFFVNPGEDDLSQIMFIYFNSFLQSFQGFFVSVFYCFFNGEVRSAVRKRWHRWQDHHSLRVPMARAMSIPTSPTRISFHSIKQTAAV
T1 sequence (P24387 whole entry): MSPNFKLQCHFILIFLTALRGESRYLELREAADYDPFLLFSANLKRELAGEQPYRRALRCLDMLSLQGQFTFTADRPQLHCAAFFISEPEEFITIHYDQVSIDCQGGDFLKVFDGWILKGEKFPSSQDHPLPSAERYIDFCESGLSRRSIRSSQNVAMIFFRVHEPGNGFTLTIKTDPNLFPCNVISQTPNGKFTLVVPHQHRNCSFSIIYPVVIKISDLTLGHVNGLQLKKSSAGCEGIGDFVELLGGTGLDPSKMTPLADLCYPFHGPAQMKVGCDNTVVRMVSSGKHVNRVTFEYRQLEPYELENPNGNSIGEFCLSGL
The experiment in a line: activators of CRF receptor 2 with binding protein – uHTS hits, confirmation (AID 602473). Particulars: read-out: EC50_Mean. Type of experiment: functional.

In a further experiment the target is T2, Estrogen receptor (Homo sapiens, UniProt P03372).
T2 sequence (P03372 whole entry): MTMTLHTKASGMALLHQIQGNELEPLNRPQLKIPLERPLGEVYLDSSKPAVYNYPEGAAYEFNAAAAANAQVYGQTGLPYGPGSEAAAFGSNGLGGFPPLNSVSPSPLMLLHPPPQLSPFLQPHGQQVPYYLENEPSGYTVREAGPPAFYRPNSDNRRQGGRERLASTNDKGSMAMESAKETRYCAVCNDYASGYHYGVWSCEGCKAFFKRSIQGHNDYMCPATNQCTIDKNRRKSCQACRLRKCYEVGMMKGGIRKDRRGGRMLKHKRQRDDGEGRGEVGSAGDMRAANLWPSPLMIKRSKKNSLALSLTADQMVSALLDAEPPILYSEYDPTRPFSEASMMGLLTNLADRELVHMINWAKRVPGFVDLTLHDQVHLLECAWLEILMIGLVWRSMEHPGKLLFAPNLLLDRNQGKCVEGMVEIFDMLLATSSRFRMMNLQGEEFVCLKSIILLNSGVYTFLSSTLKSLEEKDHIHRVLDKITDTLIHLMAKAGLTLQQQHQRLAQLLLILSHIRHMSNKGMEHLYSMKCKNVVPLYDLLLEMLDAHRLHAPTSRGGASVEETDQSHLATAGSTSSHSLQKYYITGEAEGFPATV

Another experiment has as its target Estrogen receptor beta (Homo sapiens, UniProt Q92731). Briefly: blockers of SRC-3 recruitment to ERβ – biochemical, ELISA, streptavidin-HRP readout, orthogonal assay, confirmation (AID 1060). (In general: An ELISA detects its analyte on a solid surface through an enzyme-linked reagent.)
Experiment [5] can be described thus: viability loss in THP-1 monocytes – THP-1 cells, cytotoxicity control for Vif-APOBEC3G degradation inhibitor project, dose response (AID 1117359). The format is functional. Particulars: THP-1.
Experiment [6] concerns the target T3, Apoptotic protease-activating factor 1 (Homo sapiens, UniProt O14727).
T3 sequence (O14727 whole entry): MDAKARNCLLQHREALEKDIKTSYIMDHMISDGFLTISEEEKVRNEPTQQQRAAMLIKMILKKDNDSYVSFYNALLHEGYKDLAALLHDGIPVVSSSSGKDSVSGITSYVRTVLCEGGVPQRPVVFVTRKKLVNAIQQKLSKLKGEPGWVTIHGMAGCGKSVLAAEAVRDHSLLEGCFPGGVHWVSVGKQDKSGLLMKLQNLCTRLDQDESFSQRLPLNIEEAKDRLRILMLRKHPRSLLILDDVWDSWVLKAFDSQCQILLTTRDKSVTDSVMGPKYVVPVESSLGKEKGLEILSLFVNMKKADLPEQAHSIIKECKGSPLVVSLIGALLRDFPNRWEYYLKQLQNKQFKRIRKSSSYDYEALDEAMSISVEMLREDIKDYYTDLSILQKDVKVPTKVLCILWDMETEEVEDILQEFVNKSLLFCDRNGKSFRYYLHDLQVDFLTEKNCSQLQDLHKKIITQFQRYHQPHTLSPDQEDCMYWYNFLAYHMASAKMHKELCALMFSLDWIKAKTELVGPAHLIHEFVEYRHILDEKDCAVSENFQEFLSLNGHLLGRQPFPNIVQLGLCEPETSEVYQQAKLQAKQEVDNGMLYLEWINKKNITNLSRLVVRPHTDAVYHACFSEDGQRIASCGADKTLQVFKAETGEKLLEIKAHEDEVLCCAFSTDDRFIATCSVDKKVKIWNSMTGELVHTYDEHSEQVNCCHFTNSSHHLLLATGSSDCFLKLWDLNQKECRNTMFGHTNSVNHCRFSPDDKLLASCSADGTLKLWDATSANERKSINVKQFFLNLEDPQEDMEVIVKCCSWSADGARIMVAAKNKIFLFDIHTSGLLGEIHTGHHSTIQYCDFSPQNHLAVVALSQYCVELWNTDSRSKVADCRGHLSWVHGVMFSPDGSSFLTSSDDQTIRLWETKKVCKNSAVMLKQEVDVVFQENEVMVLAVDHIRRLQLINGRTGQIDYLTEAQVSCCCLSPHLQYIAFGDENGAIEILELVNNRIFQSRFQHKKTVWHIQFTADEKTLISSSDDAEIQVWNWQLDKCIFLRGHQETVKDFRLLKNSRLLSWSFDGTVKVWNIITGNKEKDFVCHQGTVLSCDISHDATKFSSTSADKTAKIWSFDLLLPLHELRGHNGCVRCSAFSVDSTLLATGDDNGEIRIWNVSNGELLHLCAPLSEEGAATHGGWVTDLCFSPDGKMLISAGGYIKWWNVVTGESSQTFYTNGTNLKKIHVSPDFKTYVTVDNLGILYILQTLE
Type of experiment: functional.

Experiment [7] has as its target T4, RNA-binding protein pos-1 (Caenorhabditis elegans, UniProt G5EF15).
T4 sequence (G5EF15 whole entry): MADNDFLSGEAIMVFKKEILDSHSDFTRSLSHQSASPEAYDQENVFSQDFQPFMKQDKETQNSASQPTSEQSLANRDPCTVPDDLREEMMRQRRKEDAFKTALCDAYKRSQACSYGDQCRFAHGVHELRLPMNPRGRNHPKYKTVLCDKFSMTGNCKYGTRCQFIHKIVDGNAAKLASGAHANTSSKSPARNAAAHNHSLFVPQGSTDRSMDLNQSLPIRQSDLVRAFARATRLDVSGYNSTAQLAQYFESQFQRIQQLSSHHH
The experiment in a line: disruptors of C. elegans POS-1 RNA interaction – biochemical, fluorescence polarization, dose response (AID 1964).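 Note: purified POS-1 fused to maltose binding protein made in E. coli; potency of compounds blocking POS-1 binding to fluorescent RNA.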

Experiment [8] has as its target T5, Zinc finger protein mex-5 (Caenorhabditis elegans, UniProt Q9XUB2).
T5 sequence (Q9XUB2 whole entry): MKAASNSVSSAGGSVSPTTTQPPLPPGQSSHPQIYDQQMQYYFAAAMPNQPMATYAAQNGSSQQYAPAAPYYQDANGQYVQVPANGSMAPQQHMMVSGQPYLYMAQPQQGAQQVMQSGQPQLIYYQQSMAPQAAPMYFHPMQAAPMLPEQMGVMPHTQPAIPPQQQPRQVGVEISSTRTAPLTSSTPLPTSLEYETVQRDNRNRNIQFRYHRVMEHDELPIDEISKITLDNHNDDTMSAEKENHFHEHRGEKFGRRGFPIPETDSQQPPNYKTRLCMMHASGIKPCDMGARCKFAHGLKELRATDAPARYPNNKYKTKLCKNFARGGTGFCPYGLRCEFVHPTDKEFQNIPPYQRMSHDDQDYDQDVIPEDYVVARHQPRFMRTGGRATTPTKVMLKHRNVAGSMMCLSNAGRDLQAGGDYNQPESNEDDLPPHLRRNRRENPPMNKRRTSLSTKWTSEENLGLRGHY
The experiment in a line: potency of MEX-5 RNA-binding blockers – biochemical, C. elegans, fluorescence polarization, dose response (AID 1960). On the technique in general: Polarisation of emitted light reports the rotation of a fluorescent probe.

In experiment [9] the target is T6, Carboxy-terminal domain RNA polymerase II polypeptide A small phosphatase 1 (Homo sapiens, UniProt Q9GZU7).
T6 sequence (Q9GZU7 whole entry): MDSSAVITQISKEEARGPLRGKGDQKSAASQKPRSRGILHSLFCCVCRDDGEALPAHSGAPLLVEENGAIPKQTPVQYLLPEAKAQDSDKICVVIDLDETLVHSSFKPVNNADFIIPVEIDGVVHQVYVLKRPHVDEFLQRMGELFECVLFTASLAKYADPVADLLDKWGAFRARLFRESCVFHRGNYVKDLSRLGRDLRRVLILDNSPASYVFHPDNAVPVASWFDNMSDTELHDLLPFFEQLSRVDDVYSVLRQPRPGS
The experiment in a line: CTDSP1 inhibitors, concentration-response, biochemical, absorbance readout, ultra-high-throughput screen actives (AID 540297). Type of experiment: functional.

Experiment [10] concerns the target T7, Rac GTPase-activating protein 1 (Homo sapiens, UniProt Q9H0H5).
T7 sequence (Q9H0H5 whole entry): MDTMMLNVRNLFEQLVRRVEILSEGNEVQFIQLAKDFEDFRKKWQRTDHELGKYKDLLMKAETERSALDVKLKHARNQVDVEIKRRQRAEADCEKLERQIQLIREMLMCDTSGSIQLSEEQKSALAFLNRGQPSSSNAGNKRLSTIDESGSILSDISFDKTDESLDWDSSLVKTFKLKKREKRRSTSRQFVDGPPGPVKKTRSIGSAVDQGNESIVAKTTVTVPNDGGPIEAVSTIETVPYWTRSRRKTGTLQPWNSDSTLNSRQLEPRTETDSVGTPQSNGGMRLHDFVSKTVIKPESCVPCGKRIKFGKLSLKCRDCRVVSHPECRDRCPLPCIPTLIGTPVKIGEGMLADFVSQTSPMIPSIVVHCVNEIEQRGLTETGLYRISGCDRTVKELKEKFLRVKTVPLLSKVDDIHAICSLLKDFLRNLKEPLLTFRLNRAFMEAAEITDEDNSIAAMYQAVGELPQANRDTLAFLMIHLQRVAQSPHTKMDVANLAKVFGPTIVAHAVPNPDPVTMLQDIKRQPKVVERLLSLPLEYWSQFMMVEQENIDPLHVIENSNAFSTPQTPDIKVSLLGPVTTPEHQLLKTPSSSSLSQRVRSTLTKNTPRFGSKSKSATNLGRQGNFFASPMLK
The experiment in a line: blockers of MgcRacGAP-driven Rac1 GTP hydrolysis – biochemical, ADP Hunter fluorescence, primary and confirmatory, confirmation (AID 624330). The format is functional.

For experiment [11], the target named is Protein-tyrosine kinase 2-beta (Homo sapiens, UniProt Q14289).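 Note: potency of inhibitors of PYK2 kinase phosphorylation of poly-GT substrate.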
Sequence of Protein-tyrosine kinase 2-beta (Q14289 whole entry): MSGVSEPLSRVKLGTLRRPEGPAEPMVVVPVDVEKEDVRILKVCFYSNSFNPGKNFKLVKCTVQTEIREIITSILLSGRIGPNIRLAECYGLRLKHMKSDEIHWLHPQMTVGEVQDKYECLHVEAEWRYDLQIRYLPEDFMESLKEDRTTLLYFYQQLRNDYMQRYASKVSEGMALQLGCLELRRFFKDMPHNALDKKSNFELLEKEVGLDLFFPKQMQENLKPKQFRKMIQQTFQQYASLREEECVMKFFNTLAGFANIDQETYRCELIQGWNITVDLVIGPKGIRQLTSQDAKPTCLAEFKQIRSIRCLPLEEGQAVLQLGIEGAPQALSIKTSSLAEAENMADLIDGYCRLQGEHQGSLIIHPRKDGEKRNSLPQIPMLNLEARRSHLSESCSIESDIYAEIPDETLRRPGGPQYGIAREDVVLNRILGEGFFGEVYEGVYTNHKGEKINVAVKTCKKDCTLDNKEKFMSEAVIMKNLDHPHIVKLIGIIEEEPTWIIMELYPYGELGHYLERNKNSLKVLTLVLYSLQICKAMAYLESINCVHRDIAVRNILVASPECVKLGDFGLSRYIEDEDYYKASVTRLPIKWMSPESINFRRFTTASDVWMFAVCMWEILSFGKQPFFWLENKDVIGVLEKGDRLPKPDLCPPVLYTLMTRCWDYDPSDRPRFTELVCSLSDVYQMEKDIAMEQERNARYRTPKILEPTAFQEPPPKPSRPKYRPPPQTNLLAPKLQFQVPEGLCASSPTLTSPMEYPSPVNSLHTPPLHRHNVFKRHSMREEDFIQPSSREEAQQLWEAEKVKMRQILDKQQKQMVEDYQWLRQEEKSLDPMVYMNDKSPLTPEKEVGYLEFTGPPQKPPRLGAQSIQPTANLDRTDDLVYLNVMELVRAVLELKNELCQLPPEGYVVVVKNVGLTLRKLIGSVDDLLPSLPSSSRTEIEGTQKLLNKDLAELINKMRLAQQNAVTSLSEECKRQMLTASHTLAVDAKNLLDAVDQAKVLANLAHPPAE

The source made the active and inactive calls.

Sequence of Voltage-gated N-type calcium channel alpha-1B subunit/Amyloid beta A4 precursor protein-binding family A member 1 (Q00975 whole entry): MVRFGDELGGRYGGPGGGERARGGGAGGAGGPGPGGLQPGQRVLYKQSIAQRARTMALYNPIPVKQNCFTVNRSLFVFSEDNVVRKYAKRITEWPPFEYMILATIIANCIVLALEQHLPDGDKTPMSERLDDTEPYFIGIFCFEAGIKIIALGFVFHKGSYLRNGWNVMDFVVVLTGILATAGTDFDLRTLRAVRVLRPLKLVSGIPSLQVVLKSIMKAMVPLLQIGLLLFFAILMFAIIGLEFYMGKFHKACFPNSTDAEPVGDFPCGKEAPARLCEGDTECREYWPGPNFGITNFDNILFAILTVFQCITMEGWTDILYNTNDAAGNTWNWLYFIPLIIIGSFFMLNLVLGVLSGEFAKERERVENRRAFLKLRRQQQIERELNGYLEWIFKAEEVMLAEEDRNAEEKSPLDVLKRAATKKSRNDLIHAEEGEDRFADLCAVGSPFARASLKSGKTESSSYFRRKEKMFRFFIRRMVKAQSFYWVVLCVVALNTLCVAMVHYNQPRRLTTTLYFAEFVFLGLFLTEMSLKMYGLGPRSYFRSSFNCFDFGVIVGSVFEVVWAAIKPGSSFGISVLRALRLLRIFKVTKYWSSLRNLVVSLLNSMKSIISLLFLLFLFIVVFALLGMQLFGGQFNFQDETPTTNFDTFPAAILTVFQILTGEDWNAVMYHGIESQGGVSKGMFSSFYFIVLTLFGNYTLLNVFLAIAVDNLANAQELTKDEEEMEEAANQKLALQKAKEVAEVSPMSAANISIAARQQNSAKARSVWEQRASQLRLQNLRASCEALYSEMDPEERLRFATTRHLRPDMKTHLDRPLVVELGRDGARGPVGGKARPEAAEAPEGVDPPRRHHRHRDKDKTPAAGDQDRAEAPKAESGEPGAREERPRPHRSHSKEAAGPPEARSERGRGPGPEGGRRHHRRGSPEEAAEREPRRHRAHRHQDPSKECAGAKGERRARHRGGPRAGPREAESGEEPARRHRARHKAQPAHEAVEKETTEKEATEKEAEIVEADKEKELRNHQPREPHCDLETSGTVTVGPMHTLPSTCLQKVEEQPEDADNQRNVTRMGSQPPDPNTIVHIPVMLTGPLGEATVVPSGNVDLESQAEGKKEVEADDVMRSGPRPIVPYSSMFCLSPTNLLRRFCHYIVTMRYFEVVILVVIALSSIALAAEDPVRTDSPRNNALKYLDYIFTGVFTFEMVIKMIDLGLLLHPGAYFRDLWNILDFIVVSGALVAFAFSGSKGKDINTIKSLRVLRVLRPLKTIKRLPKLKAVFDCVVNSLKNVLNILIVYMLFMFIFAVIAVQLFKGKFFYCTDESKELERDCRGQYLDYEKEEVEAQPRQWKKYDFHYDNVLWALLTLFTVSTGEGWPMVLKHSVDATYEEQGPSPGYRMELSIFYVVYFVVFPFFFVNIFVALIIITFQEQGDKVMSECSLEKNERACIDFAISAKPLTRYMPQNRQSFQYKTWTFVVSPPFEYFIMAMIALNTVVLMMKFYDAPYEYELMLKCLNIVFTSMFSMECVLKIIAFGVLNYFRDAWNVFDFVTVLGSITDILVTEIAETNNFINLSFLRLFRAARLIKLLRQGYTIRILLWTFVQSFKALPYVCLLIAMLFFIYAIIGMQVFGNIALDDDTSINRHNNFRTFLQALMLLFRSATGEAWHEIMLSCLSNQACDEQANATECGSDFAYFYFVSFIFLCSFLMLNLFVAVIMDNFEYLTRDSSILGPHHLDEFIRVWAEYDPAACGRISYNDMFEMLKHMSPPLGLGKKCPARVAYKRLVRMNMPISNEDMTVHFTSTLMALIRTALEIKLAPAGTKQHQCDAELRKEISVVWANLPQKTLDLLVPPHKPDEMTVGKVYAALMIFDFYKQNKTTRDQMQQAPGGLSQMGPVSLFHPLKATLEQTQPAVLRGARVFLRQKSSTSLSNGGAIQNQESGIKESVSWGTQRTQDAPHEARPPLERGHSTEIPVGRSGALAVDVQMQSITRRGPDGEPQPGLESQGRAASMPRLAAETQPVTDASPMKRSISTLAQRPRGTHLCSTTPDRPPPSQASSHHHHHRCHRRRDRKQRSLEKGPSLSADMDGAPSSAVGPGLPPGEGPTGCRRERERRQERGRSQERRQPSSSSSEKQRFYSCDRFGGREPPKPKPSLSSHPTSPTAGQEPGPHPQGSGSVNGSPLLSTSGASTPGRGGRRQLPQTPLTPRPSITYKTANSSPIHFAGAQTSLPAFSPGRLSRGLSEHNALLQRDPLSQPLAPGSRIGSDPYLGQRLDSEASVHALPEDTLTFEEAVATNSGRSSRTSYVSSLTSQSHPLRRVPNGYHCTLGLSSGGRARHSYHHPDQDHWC
Sequence of Voltage-gated N-type calcium channel alpha-1B subunit/Amyloid beta A4 precursor protein-binding family A member 1 (Q02410 whole entry): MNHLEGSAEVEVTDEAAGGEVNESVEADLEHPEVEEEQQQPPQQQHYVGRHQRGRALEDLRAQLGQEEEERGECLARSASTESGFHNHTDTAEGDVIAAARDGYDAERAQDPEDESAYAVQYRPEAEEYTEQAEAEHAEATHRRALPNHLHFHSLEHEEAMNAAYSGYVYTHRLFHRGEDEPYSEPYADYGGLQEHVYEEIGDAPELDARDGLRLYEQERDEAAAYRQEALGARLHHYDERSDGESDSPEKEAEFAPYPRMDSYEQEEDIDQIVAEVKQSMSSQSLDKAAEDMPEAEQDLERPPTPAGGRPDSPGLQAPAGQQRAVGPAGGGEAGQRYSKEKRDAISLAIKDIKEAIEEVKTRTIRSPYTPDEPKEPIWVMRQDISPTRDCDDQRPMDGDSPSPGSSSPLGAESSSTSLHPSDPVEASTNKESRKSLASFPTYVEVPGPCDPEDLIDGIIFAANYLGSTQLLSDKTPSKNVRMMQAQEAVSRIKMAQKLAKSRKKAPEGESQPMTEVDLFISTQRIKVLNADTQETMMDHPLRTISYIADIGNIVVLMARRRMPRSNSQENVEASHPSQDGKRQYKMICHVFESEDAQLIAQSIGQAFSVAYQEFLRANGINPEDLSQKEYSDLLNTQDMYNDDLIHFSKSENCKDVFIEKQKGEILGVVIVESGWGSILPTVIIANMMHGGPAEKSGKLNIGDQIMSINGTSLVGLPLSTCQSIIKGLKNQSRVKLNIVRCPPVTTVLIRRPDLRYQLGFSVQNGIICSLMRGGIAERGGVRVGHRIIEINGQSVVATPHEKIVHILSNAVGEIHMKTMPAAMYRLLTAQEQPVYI
Sequence of Estrogen receptor beta (Q92731 whole entry): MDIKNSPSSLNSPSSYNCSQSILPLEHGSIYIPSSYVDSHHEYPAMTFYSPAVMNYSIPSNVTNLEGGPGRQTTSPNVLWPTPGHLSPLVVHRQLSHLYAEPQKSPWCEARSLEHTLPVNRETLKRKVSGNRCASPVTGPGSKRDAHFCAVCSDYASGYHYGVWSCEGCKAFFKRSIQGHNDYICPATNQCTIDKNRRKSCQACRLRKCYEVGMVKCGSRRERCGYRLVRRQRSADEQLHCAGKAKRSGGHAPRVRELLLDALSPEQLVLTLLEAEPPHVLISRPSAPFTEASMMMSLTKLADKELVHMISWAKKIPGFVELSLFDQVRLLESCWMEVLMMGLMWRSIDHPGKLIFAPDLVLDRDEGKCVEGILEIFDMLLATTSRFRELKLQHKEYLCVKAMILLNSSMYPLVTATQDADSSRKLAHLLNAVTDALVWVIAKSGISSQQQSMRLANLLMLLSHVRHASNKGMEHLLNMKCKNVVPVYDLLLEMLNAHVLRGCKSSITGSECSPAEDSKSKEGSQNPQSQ

On to `CCOc1ccc(NC(=O)Cn2cncc2-c2ccc([N+](=O)[O-])cc2)cc1`, for which the IC50 (as a rule, the point on the concentration scale where inhibition reaches its midpoint) in [1] is 5.93 µM (active).
For `COc1ccc(S(=O)(=O)Nc2ccc3c(c2)C(=O)N([C@@H](C)CO)C[C@@H](C)[C@H](CN(C)C(=O)Nc2cccc4ccccc24)OCCCC[C@H](C)O3)cc1`, the AC50 (commonly the concentration giving half of the maximal activity seen) in [2] was > 52 µM (inactive); in experiment [3], 2.05 µM (active).
`COc1cc(/C=c2\s/c(=C(/C#N)C(=O)N3CCCC3)n(-c3ccccc3)c2=O)ccc1O`: the IC50 in the experiment on H9c2 was > 79 µM (inactive); at Estrogen receptor, > 50 µM (not active). Further, in experiment [4], the EC50 is 8.71 µM (active).
Regarding `N#Cc1c(NC(=O)CN2CCCCC2)sc2c1CCC2`, the IC50 at Estrogen receptor beta is 0.0561 µM (not active).
On to `CCCN(CC(=O)Nc1ccccc1OC)C(=O)CSc1ccc(Br)cc1C`, for which the CC50 (as a rule, the concentration giving 50% cytotoxicity) in experiment [5] was > 40 µM (active). Further, in [6], the IC50 is 48.4 µM (active).
Regarding `Cn1cccc1/C=C1\C(=O)NC(=O)N(Cc2ccco2)C1=O`, the values for the EC50 in experiment [7] and in [8] were > 300 µM (not active) and 57.7 µM (active), respectively. Also, the CC50 in experiment [5] was > 40 µM (active). Besides, the IC50 in [9] was 4.88 µM (active); in experiment [10] it was 116 µM (active).
For `Clc1ccc(CSCCc2ccncc2)cc1`, the CC50 in experiment [5] is > 40 µM (active).
Regarding `O=C(OCC(=O)N1CCN(C(=O)c2ccco2)CC1)c1cc(-c2ccc(Cl)c(Cl)c2Cl)nc2ccccc12`, the IC50 in [11] is 5.94 µM (active).
